Reference: EP0619818B1, “IMIDAZOYLALKYL SUBSTITUTED WITH A SIX MEMBERED NITROGEN CONTAINING HETEROCYCLIC RING” (SCHERING CORPORATION, priority 1991, dated 1993)

Target: H3 receptors (Cavia porcellus, UniProt Q9JI35)
Assay: H3 Receptor Binding Assay
Conditions: guinea pig brain membranes; 3 nM [3H]R-α-methylhistamine or [3H]-N-methylhistamine; 30° for 30 min; 50 mM Tris, pH 7.5
Method: The animals used weighed 400-600 g. The tissue was homogenized using a Polytron in a solution of 50 mM Tris, pH 7.5. The final concentration of tissue in the homogenization buffer was 10% w/v. The homogenates were centrifuged at 1000 x g for 10 min. in order to remove clumps of tissue and debris. The resulting supernatants were then centrifuged at 50,000 x g for 20 min. in order to sediment the membranes, which were next washed 3 times in homogenization buffer (50,000 x g for 20 min. each). The membranes were frozen and stored at -70°C until needed.
All compounds to be tested were dissolved in DMSO and then diluted into the binding buffer (50 mM Tris, pH 7.5) such that the final concentration was 2 µg/mL with 0.1% DMSO. Membranes were then added (400 µg of protein) to the reaction tubes. The reaction was started by the addition of 3 nM [^3H]R-α-methylhistamine (8.8 Ci/mmol) or [^3H]-N-methylhistamine (80 Ci/mmol) and incubated at 30° for 30 min. Bound ligand was separated from unbound ligand by filtration, and the amount of radioactive ligand bound to the membranes was quantitiated by liquid scintillation spectrometry. All incubations were performed in duplicate and the standard error was less than 10% in all instances.

H3 receptors, sequence (Q9JI35 whole entry): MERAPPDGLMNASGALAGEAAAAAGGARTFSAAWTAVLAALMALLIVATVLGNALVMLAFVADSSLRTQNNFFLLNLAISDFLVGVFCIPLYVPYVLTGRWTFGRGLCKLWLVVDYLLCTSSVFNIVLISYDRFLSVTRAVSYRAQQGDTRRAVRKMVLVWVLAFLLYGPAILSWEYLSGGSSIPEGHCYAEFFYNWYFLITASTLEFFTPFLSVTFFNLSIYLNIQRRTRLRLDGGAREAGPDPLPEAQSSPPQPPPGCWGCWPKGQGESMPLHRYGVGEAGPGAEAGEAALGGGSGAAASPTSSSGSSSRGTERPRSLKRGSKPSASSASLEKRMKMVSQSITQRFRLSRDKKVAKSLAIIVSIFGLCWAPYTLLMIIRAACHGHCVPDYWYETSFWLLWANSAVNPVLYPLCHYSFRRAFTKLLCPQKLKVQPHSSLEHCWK

| Structure (SMILES) | Ki |
| --- | --- |
| c1nc(CC2CCNCC2)c[nH]1 [Compound 7.3] | 0.0003 µM |
| CN1CCCC(Cc2c[nH]cn2)C1 (centres unmarked) [Compound 6.2] | 0.19 µM |
